Measured values published in patent publication US20150140089A1 (MetronomX, priority 2012, published 2015).
Several values for one entry are separate records, joined by “and”; a condition that tells them apart may be missing. Equal entries are not always repeated. Where two headings read alike, the source gives them in different places.

Columns and labels:
[1] = 2% w/v SDS in water
[2] = In vitro release (dissolution) using 2% w/v SDS in deionized water; type: physicochemical
Method: (§1) At specified time intervals (0.5, 1, 2, 4, 8, 10, and 24 h), 2 ml of sample was collected from each basket and replaced with the same volume of buffer.
Dissolution of each formulation was performed in duplicate.

[3] = In vitro release (dissolution), USP apparatus II, 5% SDS in 0.1N HCl; type: physicochemical; conditions: 0.1N HCl with 5% SDS; in 24 hr
Method: as §1

[4] = blood level of active compound; cited from earlier work

Estimated Amount of Nifurtimox ([1]; 25 °C, 0 hr): 344.22 µg/mL | Estimated Amount of Nifurtimox ([1]; 25 °C, 4 hr): 339.96 µg/mL | Estimated Amount of Nifurtimox ([1]; 25 °C, 8 hr): 345.38 µg/mL | Estimated Amount of Nifurtimox ([1]; 25 °C, 12 hr): 346.21 µg/mL | Estimated Amount of Nifurtimox ([1]; 25 °C, 16 hr): 346.94 µg/mL | Estimated Amount of Nifurtimox ([1]; 25 °C, 20 hr): 344.92 µg/mL | Estimated Amount of Nifurtimox ([1]; 25 °C, 24 hr): 341.80 µg/mL | Estimated Amount of Nifurtimox ([1]; 37 °C, 1 hr): 338.78 µg/mL | Estimated Amount of Nifurtimox ([1]; 37 °C, 2 hr): 339.74 µg/mL | Estimated Amount of Nifurtimox ([1]; 37 °C, 3 hr): 338.78 µg/mL | Estimated Amount of Nifurtimox ([1]; 37 °C, 24 hr): 343.76 µg/mL and 339.56 µg/mL | instability of Nifurtimox during dissolution (in words) [2]: no significant instability | Nifurtimox degradation in dissolution samples [3]: about 25%
SMILES: CC1CS(=O)(=O)CCN1/N=C/c1ccc([N+](=O)[O-])o1 (stereo not drawn) [Nifurtimox, 3-methyl-4-(5′-nitrofurfurylidene-amino)-tetrahydro-4H-1,4-thiazine-1,1-dioxide]
half-life [4]: 2.95 ± 1.19 h | time to peak [4]: 1 to 2 h
